# Measured values published in patent publication US7589123B2, “Chemical compounds” (Phytopharm PLC, priority 2006, dated 2009).
# What was measured:
# [1] = tested on: ovalbumin-sensitised mice; assay: Ovalbumin-sensitised mice, a chronic model of asthma in vivo (Assay 8); conditions: mean ± s.e.mean, oral gavage 20 days: 2 3 mg/kg/day, 32 30 mg/kg/day, budesonide 1 mg/kg/day, montelukast 10 mg/kg/day; for Eosinophil infiltration / IL-4 concentration / IL-13 concentration: BAL fluid day 55; for Eosinophil infiltration: sensitised 192.1 ± 33.2; for IL-4 concentration: sensitised 231.2 ± 62.4; for IL-13 concentration: sensitised 241.9 ± 89.3; for Histopathology score: lung remodelling, day 55, sensitised 541.6 ± 36.1; for Increase in penH: methacholine challenge, day 54, sensitised 193.0 ± 61.7
# Method: Mice (BALB/c from Harlan-Olac) were sensitised to ovalbumin using two interperitoneal injections of ovalbumin (10 μg) and alum (200 μl) on day 1 and 14 followed by a 20 min, daily exposure to a ovalbumin aerosol (5%) on days 19-23 and then a thrice weekly 20 min, exposure to a ovalbumin aerosol (5%) on days 24-55. […] On day 54, mice were placed in BUXCO four chamber whole body plethysmographs and breathing-associated pressure changes were recorded which were then used to calculate enhanced pause (penH), a measurement of airways resistance, in response to a methacholine challenge.
# On day 55 the mice were killed and brochoalveolar lavage (BAL) fluid was collected and cytospins prepared to measure eosinophil infiltration. In addition, concentrations of interleukin-4 (IL-4) and interleukin-13 (IL-13) were measured in the BAL fluid. Furthermore, lung samples were taken, examined by a histopathologist and scored using a grading system to describe the degree of lung remodelling.
# WI-38 cells = assay: Viability of WI-38 cells, Alamar Blue (Assay 5); type: cell-based, human
# Summary of the method: (§1)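 WI-38 fibroblasts stimulated overnight at 37 °C with 1 nM IL-1α plus test compound at 3 and 30 μM in MEM with 10% FBS, pH 7.3; released PGE2 in supernatant quantified by radioimmunoassay as percent inhibition. Viability then checked by Alamar Blue, 4 h at 37 °C, fluorescence ex 530/em 590 nm.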
# [2] = tested on: IL-1α-induced PGE2 release; assay: IL-1α-induced PGE2 release in human diploid lung fibroblasts (WI-38) (Assay 5); type: cell-based; conditions: Homo sapiens, WI-38 cells, IL-1α 1 nM, overnight
# Summary of the method: as §1
# [3] = tested on: 5-HT-induced contractions in guinea pig ileum; assay: Inhibition of 5-HT-induced contractions in guinea pig ileum (Assay 3); conditions: Cavia porcellus, 5-HT 2.6 μM, read-out: Inhibition of 5-HT-induced contraction (%)
# Summary of the method: (§2)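 Isolated male guinea pig ileum strips in Krebs at 32° C, pH 7.4, 1 g resting tension, isotonic recording. Contraction to test compound (3 and 30 μM) alone recorded, then inhibition of responses to histamine 1.7 μM or 5-HT 2.6 μM (~EC60-70, 5 min) measured in its continued presence.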
# [4] = tested on: histamine-induced contractions in guinea pig ileum; assay: Inhibition of histamine-induced contractions in guinea pig ileum (Assay 3); conditions: Cavia porcellus, histamine 1.7 μM, read-out: Inhibition of histamine-induced contraction (%)
# Summary of the method: as §2
SMILES,melting point,further results
"COc1cc(/C=C/C(=O)CC(=O)c2ccc(Cl)cc2C)ccc1O [Compound 96, (E)-1-(4-Chloro-2-methylphenyl)-5-(4-hydroxy-3-methoxyphenyl)pent-4-ene-1,3-dione]",78 °C,
"COc1cc(/C=C/C(=O)CC(=O)C2CC2)ccc1O [Compound 37, (E)-1-Cyclopropyl-5-(4-hydroxy-3-methoxyphenyl)-pent-4-ene-1,3-dione]",74.5 to 79 °C,
"CCOc1cc(/C=C/C(=O)CC(=O)c2ccccc2)ccc1O [Compound 106, (E)-5-(3-Ethoxy-4-hydroxyphenyl)-1-phenylpent-4-ene-1,3-dione]",110 to 112 °C,
"COc1cc(C=CC(=O)CC(=O)c2ccc(Cl)cc2)ccc1O [Compound 53, 1-(4-Chlorophenyl)-5-(4-hydroxy-3-methoxyphenyl)pent-4-ene-1,3-dione]",57 to 63 °C,
"COc1cc(/C=C/C(=O)CC(=O)c2ccc(Cl)c(C)c2)ccc1O [Compound 95, (E)-1-(4-Chloro-3-methylphenyl)-5-(4-hydroxy-3-methoxyphenyl)pent-4-ene-1,3-dione]",68 to 70 °C,
"COC(=O)c1ccc(C(=O)CC(=O)/C=C/c2ccc(O)c(OC)c2)cc1 [Compound 57, Methyl 4-[(E)-1,3-dioxo-5-(4-hydroxy-3-methoxyphenyl)pent-4-enyl]benzoate]",187 to 189 °C,
"COc1cc(/C=C/C(=O)C(C)(C)C(=O)C(C)(C)C)ccc1O [Compound 91, (E)-1-(4-Hydroxy-3-methoxyphenyl)-4,4,6,6-tetramethylhept-1-ene-3,5-dione]",98 to 99 °C,
COc1cc(CCC(=O)CC(=O)c2ccccc2)ccc1OCCN.Cl,80 °C,
"COc1cc(/C=C/C(=O)CC(=O)c2ccc3ccccc3c2)c(Cl)cc1O [Compound 105, (E)-5-(2-Chloro-4-hydroxy-5-methoxyphenyl)-1-(naphthalene-3-yl)pent-4-ene-1,3-dione]",134 °C,
"CCCC1O[C@@H]2C[C@H]3[C@@H]4CCC5=CC(=O)C=C[C@]5(C)[C@H]4[C@@H](O)C[C@]3(C)[C@]2(C(=O)CO)O1 (some centres unmarked) [budesonide, reference compound]",,Eosinophil infiltration [1]: 38.4 ± 5.4% of control; IL-4 concentration [1]: 144.2 ± 59.7% of control; IL-13 concentration [1]: 199.3 ± 110.1% of control; Histopathology score [1]: 200.0 ± 27.6% of control; Increase in penH [1]: 184.6 ± 27.7% of control
"COc1cc(C=CC(=O)CC(=O)c2ccc(Cl)cc2Cl)ccc1O [Compound 56, 1-(2,4-Dichlorophenyl)-5-(4-hydroxy-3-methoxyphenyl)pent-4-ene-1,3-dione]",86 to 87 °C,
"CC(C)(O)c1ccccc1CC[C@@H](SCC1(CC(=O)O)CC1)c1cccc(/C=C/c2ccc3ccc(Cl)cc3n2)c1 [montelukast, reference compound]",,Eosinophil infiltration [1]: 124.3 ± 24.8% of control; IL-4 concentration [1]: 58.2 ± 37.2% of control; IL-13 concentration [1]: 73.2 ± 55.3% of control; Histopathology score [1]: 450.0 ± 38.25% of control; Increase in penH [1]: 187.6 ± 31.9% of control
"COc1cc(/C=C/C(=O)CC(=O)c2ccc(C)c(Cl)c2)ccc1O [Compound 98, (E)-1-(3-Chloro-4-methylphenyl)-5-(4-hydroxy-3-methoxyphenyl)pent-4-ene-1,3-dione]",70 to 72 °C,
"COc1cc(/C=C/C(=O)CC(=O)c2ccc(C(C)(C)C)cc2)ccc1O [Compound 102, (E)-1-(4-tert-Butylphenyl)-5-(4-hydroxy-3-methoxyphenyl)pent-4-ene-1,3-dione]",87 to 88 °C,
"COc1cc(/C=C/C(=O)CC(=O)c2ccc(O)c(OC)c2)ccc1O [Compound 47, (E)-1,5-Bis-(4-hydroxy-3-methoxyphenyl)-pent-4-ene-1,3-dione]",170 to 172 °C,Decrease in cell viability (%) (WI-38 cells; 3 μM): 1%; Decrease in cell viability (%) (WI-38 cells; 30 μM): 11%; inhibition at 3 µM ([2]; 3 μM): 10%; inhibition at 30 µM ([2]; 30 μM): 109%; inhibition at 3 µM ([3]; 3 μM): 6%; inhibition at 30 µM ([3]; 30 μM): 33%; inhibition at 3 µM ([4]; 3 μM): 5%; inhibition at 30 µM ([4]; 30 μM): 23%
"COc1cc(C=CC(=O)CC(=O)c2cccc(Cl)c2)ccc1O [Compound 54, 1-(3-Chlorophenyl)-5-(4-hydroxy-3-methoxyphenyl)pent-4-ene-1,3-dione]",54 to 55 °C,
"COc1cc(/C=C/C(=O)CC(=O)c2ccccc2C)ccc1O [Compound 103, (E)-5-(4-Hydroxy-3-methoxyphenyl)-1-o-tolylpent-4-ene-1,3-dione]",96 °C,
"COc1cc(/C=C/C(=O)CC(=O)c2ccccc2Cl)ccc1O [Compound 94, (E)-1-(2-Chlorophenyl)-5(4-hydroxy-3-methoxyphenyl)pent-4-ene-1,3-dione]",89 °C,
"COc1cc(C=CC(=O)CC(=O)c2ccc(Cl)c(Cl)c2)ccc1O [Compound 55, 1-(3,4-Dichlorophenyl)-5-(4-hydroxy-3-methoxyphenyl)pent-4-ene-1,3-dione]",78 to 80 °C,
"COc1cc(/C=C/C(=O)CC(=O)Cc2ccccc2)ccc1O [Compound 60, (E)-6-(4-Hydroxy-3-methoxyphenyl)-1-phenyl-hex-5-ene-2,4-dione]",106 °C,
"COc1cc(/C=C/C(=O)CC(=O)c2ccc(C#N)cc2)ccc1O [Compound 101, (E)-1-(4-Cyanophenyl)-5-(4-hydroxy-3-methoxyphenyl)pent-4-ene-1,3-dione]",128 to 130 °C,
"COc1cc(/C=C/C(=O)CC(=O)c2cccc(C)c2)ccc1O [Compound 104, (E)-5-(4-Hydroxy-3-methoxyphenyl)-1-m-tolylpent-4-ene-1,3-dione]",52 °C,
